Assay results as given in patent US12370170B2, “Composition comprising naphthoquinone-based compound as active ingredient, for preventing or ameliorating fatigue, cachexia, pain, cognitive decline and hematopoietic stem cell reduction which are side effects related to anticancer drug treatment” (NADIANBIO LTD., priority 2016, dated 2025).

Tests used:
Format in all cases: in vivo, C57BL/6 mice
[1] = Muscle loss (body weight, gastrocnemius muscle weight) in cyclophosphamide induced animal model; conditions: cyclophosphamide 150 mg/kg+200 mg/kg i.p.; dunnione 20 mg/kg oral daily from 3 days before; 48 hours after
Protocol: (§1) In this invention, 11 weeks old C57BL/6 mice were used. All the mice used in the experiments of the invention were raised in an aseptic animal room at the temperature of 22˜26 L with the humidity of 55˜60%. The mice were allowed to take general solid feed (SAMTACO Co., Ltd., Korea) and water freely. The mice were adapted for 1 week before the experiment. All the experiments were performed after obtaining approval from the clinical trial management committee in accordance with the laboratory animal care and ethics regulations of Wonkwang University. The mouse animal model of the present invention was treated with different anticancer drugs. Particularly, one kind of anticancer drug was administered intraperitoneally one time or more, or several kinds of anticancer drugs were administered once or more times or at different concentrations, leading to the establishment of the animal model of the invention. […]
In the cyclophosphamide (150 mg/kg+200 mg/kg) induced animal model prepared by the same manner as described in Example 9, the changes of body weight and gastrocnemius muscle weight were measured after the drug treatment in order to investigate the regulatory effect of dunnione on muscle loss.

[2] = test system: TNF-α; assay: TNF-α expression in femur by immunohistostaining, 4×ACP animal model; conditions: dunnione 80 mg/kg oral
Protocol: as §1, with “invention. In the adriamycin-induced animal model, the mice were divided into 6 groups as follows: the control group administered with PBS (Control, 5 mice), the group administered intraperitoneally with adriamycin (4 mg/kg/day) 3 times (ADR, 5 mice), the group administered orally with dunnione or β-lapachone from 3 days before the adriamycin treatment daily (20 mg/kg, 5 mice), and the group administered with dunnione or β-lapachone (20 mg/kg, 5 mice).” for “invention.”

[3] = test system: inflammatory cytokines TNF-α, IL-1β, IL-6 and IL-17; assay: Plasma inflammatory cytokines by ELISA in adriamycin animal model; conditions: adriamycin 4 mg/kg/day i.p. ×3; compound 20 mg/kg oral daily from 3 days before; 4 days after final adriamycin; vs adriamycin group
Protocol: as §1, with “drugs.” for “drugs. Particularly, one kind of anticancer drug was administered intraperitoneally one time or more, or several kinds of anticancer drugs were administered once or more times or at different concentrations, leading to the establishment of the animal model of the invention.”
Particularly, plasma was isolated from the adriamycin animal model prepared by the same manner as described in Example 4, and the inflammatory cytokines TNF-α (R&D Systems, MTA00B), IL-1β (R&D Systems, MLB00C), IL-6 (R&D Systems, M6000B) and IL-17 (R&D Systems, M1700) were analyzed by ELISA (enzyme-linked immunosorbent assay).
To investigate the regulatory effect of β-lapachone on adriamycin induced inflammatory cytokines, plasma was isolated from the adriamycin animal model prepared by the same manner as described in Example 4, and the inflammatory cytokines TNF-α, IL-1β, IL-6 and IL-17 were analyzed by ELISA.

[4] = test system: inflammatory cytokines TNF-α, IL-1β, IL-6 and IL-17; assay: Plasma inflammatory cytokines by ELISA in 3× and 6×ACP animal model; conditions: dunnione 20 mg/kg oral daily from 3 days before, 3 days after ACP
Protocol: as §1
Plasma was isolated from the 3× and 6×ACP animal model prepared by the same manner as described in Example 7, and the inflammatory cytokines TNF-α, IL-1β, IL-6 and IL-17 were analyzed by ELISA.

## CC1OC2=C(C(=O)C(=O)c3ccccc32)C1(C)C (stereo not drawn) [dunnione, 2,3-dihydro-2,3,3-trimethyl naphtho [1,2-b]furan-4,5-dione]
[1]
  reduction of gastrocnemius muscle weight and gastrocnemius muscle weight change: significantly restored
  weight loss (body weight): significantly restored
[2]
  up-regulation of TNF-α in the bone (femur): significantly suppressed
[3]
  level of inflammatory cytokines (TNF-α, IL-1β, IL-6, IL-17) in plasma: significantly reduced
[4]; 3×ACP i.p. once
  level of inflammatory cytokines (TNF-α, IL-1β, IL-6, IL-17) in plasma: significantly inhibited
[4]; 6×ACP i.p. once
  level of inflammatory cytokines (TNF-α, IL-1β, IL-6, IL-17) in plasma: significantly inhibited
